For 59 compounds, IC50 results are on record in patent EP4737450A1 (Longwood Pharmaceuticals (Hangzhou) Co., Ltd, priority 2023, dated 2025).

pIC50: −log10 of the molar value. Where “and” joins values, the source holds several entries; their conditions need not be identical. Equal entries are not always repeated. Where two headings read alike, the source gives them in different places.

In this assay the target is T1, plasma kallikrein (PKa) (Homo sapiens, UniProt P03952).
T1 construct: purchased R & D 2497-SE
Put plainly: Inhibitory activity against plasma kallikrein in vitro (fluorescence intensity enzyme assay, Pro-Phe-Arg-AMC substrate). Type of assay: biochemical. The following applies: Pro-Phe-Arg-AMC substrate. The method, then: Test of the inhibitory activities of the compounds of the present invention against plasma kallikrein (PKa), KLK1 and FXIa in vitro.
The final concentrations of enzyme protein and Pro-Phe-Arg-AMC in the reaction mixture were 10 nM and 60 µM, respectively. The starting concentration of the positive reference substance Avoralstat was 100 nM, 3-fold dilution, 10 + 0 dose. 0.05 µL of compound in 100% DMSO was delivered to a 384-well plate by an acoustic liquid delivery technique (Echo665; nanoliter range). Compound duplex test. […] IC50 values and nonlinear regression curve fitting were obtained using GraphPad Prism software.

The mark [1] stands for this setting: plasma kallikrein enzyme assay, read-out: PKa IC50.

T1 sequence (P03952 391-638 limits assumed): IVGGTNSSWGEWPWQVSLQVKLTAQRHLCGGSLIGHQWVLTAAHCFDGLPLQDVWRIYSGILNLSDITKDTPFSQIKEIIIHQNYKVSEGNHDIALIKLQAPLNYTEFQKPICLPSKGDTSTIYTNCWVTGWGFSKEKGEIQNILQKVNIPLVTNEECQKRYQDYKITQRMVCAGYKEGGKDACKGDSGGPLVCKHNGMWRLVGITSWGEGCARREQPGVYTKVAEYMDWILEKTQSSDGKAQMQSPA
T1 sequence (P03952 20-390 partner limits assumed): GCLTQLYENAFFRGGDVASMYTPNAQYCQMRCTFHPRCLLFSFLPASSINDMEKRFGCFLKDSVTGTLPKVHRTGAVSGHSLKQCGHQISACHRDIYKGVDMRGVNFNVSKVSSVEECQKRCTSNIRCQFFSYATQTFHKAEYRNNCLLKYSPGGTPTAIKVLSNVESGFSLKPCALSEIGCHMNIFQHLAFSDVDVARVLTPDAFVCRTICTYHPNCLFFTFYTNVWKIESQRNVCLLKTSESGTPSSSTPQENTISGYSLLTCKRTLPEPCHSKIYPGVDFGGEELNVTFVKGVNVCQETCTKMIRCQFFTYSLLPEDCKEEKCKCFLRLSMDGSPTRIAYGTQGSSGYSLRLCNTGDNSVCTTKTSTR

For `COCc1nn(Cc2ccc(Cn3c(=O)sc4cccc(F)c43)cc2)cc1C(=O)NCc1nccc(OC)c1F` [Compound 160], the pIC50 under setting [1] was 6.38.

As for `COCc1nn(Cc2ccc(Cn3ccccc3=O)cc2)cc1C(=O)NCc1cc2cnccc2n1C` [Compound 161], the pIC50 under setting [1] is 7.90.

As for `COCCOCc1nn(Cc2ccc(Cn3ccccc3=O)cc2)cc1C(=O)NCc1nccc(OC)c1F` [Compound 162], the pIC50 under setting [1] is 8.06.

With `COc1ccnc(CNC(=O)c2cn(Cc3ccc(Cn4ccccc4=O)cc3)nc2COCC(=O)N(C)C)c1F` [Compound 164], the negative logarithm of the IC50 (pIC50) under setting [1] is 7.58.

`COc1ccnc(CNC(=O)c2cn(Cc3ccc(Cn4ccccc4=O)cc3)nc2-c2cnc(O)nc2)c1F` [Compound 165]: the pIC50 under setting [1] was 7.46.

For the compound `Cc1cnn(C)c1-c1nn(Cc2ccc(Cn3ccccc3=O)cc2)cc1C(=O)NCc1nccc(N(C)C)c1F` [Compound 166], under setting [1], the pIC50 was 8.34.

`COc1ccnc(CNC(=O)c2cn(Cc3ccc(Cn4ccccc4=O)cc3)nc2CN2CCCC2=O)c1F` [Compound 169]: the pIC50 under setting [1] was 7.92.

Take `COc1ccnc(CNC(=O)c2cn(Cc3ccc(Cn4ccccc4=O)cc3)nc2N2CC[C@@H](OC)C2)c1F` [Compound 171]: the pIC50 under setting [1] is 7.07.

As to `CC[C@@H](COC)OCc1nn(Cc2ccc(Cn3ccccc3=O)cc2)cc1C(=O)NCc1nccc(OC)c1F` [Compound 172], the pIC50 under setting [1] is 6.95.

Turning to `COc1ccnc(CNC(=O)c2cn(Cc3ccc(Cn4ccccc4=O)cc3)nc2C2CN(C(=O)C(C)C)C2)c1F` [Compound 173], under setting [1], the negative-log IC50 (pIC50) is 7.93.

With `COc1ccnc(CNC(=O)c2cn(Cc3ccc(Cn4ccccc4=O)cc3)nc2CN2CC(C)(C)CC2=O)c1F` [Compound 174], the pIC50 under setting [1] was 7.94.

Consider `CCn1c(CNC(=O)c2cn(Cc3ccc(Cn4ccccc4=O)cc3)nc2COC)cc2cnccc21` [Compound 176], for which the pIC50 under setting [1] was 7.74.

As to `O=C(NCc1cc2ccncc2[nH]1)c1nc(Cc2ccc(Cn3ccccc3=O)cc2)ns1` [Compound 177], the pIC50 under setting [1] is 7.76.

Turning to `N#Cc1cc(N2CC3C(C2)C3(F)F)ccc1Cn1cc(C(=O)NCc2cc3ccncc3[nH]2)c(C(F)(F)F)n1` (centres unmarked) [Compound 178], the pIC50 under setting [1] is 8.11.

Consider `COc1ccc(F)c(CNC(=O)c2cn(Cc3ccc(Cn4cc(F)ccc4=O)cc3)nc2[C@H](C)C2COC2)c1F` [Compound 179], for which, under setting [1], the pIC50 was 7.82.

As for `COc1ccc(F)c(CNC(=O)c2cn(Cc3ccc(Cn4cc(F)ccc4=O)cc3)nc2[C@@H](C)C2COC2)c1F` [Compound 180], the pIC50 under setting [1] is 8.10.

`COc1ccnc(CNC(=O)c2cn(Cc3ccc(CN4C(=O)C5(CC5)c5ccc(F)cc54)cc3)nc2C(F)(F)F)c1F` [Compound 181]: under setting [1], the pIC50 is 6.21.

In the case of `COCc1nn(Cc2ccc(N3CCCCC3=O)cc2C#N)cc1C(=O)NCc1nccc(OC)c1F` [Compound 182], the pIC50 under setting [1] was less than 6.00.

Regarding `COCc1nn(Cc2ccc(Oc3ccccc3)cc2)cc1C(=O)NCc1cc2ccncc2[nH]1` [Compound 185], the pIC50 under setting [1] was 7.07.

Take `O=C(NCc1cc2ccncc2[nH]1)c1cn(Cc2ccc(Oc3ccccc3)cc2)nc1C(F)(F)F` [Compound 186]: the pIC50 under setting [1] is 6.15.

`Nc1ncc2cc(CNC(=O)c3cnn(Cc4ccc(Cn5ccccc5=O)cc4)c3)ccn12` [Compound 187]: under setting [1], the pIC50 was 7.97.

Turning to `COCc1nn(Cc2ccc(N3CC4C(C3)C4(F)F)cc2C#N)cc1C(=O)NCc1c(C)cn2cncc2c1C` (centres unmarked) [Compound 188], the pIC50 under setting [1] is 8.56.

On to `COc1ccc(C#N)c(CNC(=O)c2cnn(Cc3ccc(Cn4ccccc4=O)cc3)c2)c1C` [Compound 189], for which, under setting [1], the pIC50 is 6.74.

Take `COCc1nn(Cc2ccc(Cn3ccccc3=O)cc2)cc1C(=O)NCc1c(C#N)ccc(OC)c1C` [Compound 190]: under setting [1], the pIC50 is less than 6.00.

With `COc1ccnc(CNC(=O)c2cn(Cc3ccc(Cn4ccccc4=O)cc3)nc2COCCN(C)C)c1F` [Compound 191], under setting [1], the pIC50 was 7.79.

On to `COCCn1c(CNC(=O)c2cn(Cc3ccc(Cn4ccccc4=O)cc3)nc2COC)cc2cnccc21` [Compound 192], for which, under setting [1], the negative logarithm of the IC50 (pIC50) is less than 6.00.

In the case of `CCc1cc(N2CC3C(C2)C3(F)F)ccc1Cn1cc(C(=O)NCc2cc3cnccc3[nH]2)c(COC)n1` (centres unmarked) [Compound 195], the pIC50 under setting [1] was 6.72.

For the compound `Cn1c(CNC(=O)c2cn(Cc3ccc(Cn4ccccc4=O)cc3)nc2C(F)(F)F)cc2cnccc21` [Compound 196], the pIC50 under setting [1] is 7.82.

On to `O=C(NCc1ccc2ccncc2c1)c1cnn(Cc2ccc(Cn3ccccc3=O)cc2)c1` [Compound 197], for which, under setting [1], the pIC50 was 6.79.

With `COc1ccnc(CNC(=O)c2cn(Cc3ccc(Cn4c(C(F)(F)F)nccc4=O)cc3)nc2C(F)(F)F)c1F` [Compound 198], under setting [1], the pIC50 was less than 6.00.

As to `CCc1cc(N2CC3C(C2)C3(F)F)ccc1Cn1cc(C(=O)NCc2cc3ccncc3[nH]2)c(C(F)(F)F)n1` (centres unmarked) [Compound 199], under setting [1], the pIC50 is 7.70.

Take `Cc1cn2cncc2c(C)c1CNC(=O)c1cn(Cc2ccc(N3CC4C(C3)C4(F)F)cc2C#N)nc1C(F)(F)F` (centres unmarked) [Compound 200]: under setting [1], the pIC50 is 8.25.

For `COc1ccnc(CNC(=O)c2cn(Cc3ccc(Cn4ccccc4=O)cc3)nc2CN2CCC(OC)CC2)c1F` [Compound 201], the pIC50 under setting [1] was 7.97.

As to `COc1ccc(C#N)c(CNC(=O)c2cn(Cc3ccc(Cn4ccccc4=O)cc3)nc2C(F)(F)F)c1C` [Compound 202], the negative-log IC50 (pIC50) under setting [1] was less than 6.00.

Compound `COCC1(F)CN(Cc2nn(Cc3ccc(Cn4ccccc4=O)cc3)cc2C(=O)NCc2nccc(OC)c2F)C1` [Compound 205, 3-((3-fluoro-3-(methoxymethyl)azetidin-1-yl)methyl)-N-(3-fluoro-4-methoxypyridin-2-yl)methyl] had a pIC50 (PKa IC50, plasma kallikrein enzyme assay) of 8.05.

`Cc1cc2ncnn2c(C)c1CNC(=O)c1cn(Cc2ccc(Cn3ccccc3=O)cc2)nc1C(F)(F)F` [Compound 206]: the pIC50 under setting [1] was 6.50.

Take `O=C(NCc1ccc2cnccc2c1)c1cnn(Cc2ccc(Cn3ccccc3=O)cc2)c1` [Compound 207]: the pIC50 under setting [1] is 6.78.

Turning to `COc1ccnc(CNC(=O)c2cn(Cc3ccc(Cn4ccccc4=O)cc3)nc2C2CC(OC)C2)c1F` (centres unmarked) [Compound 208], the pIC50 under setting [1] was 8.10.

On to `COc1ccc(F)c(CNC(=O)c2cn(Cc3ccc(Cn4cc(F)ccc4=O)cc3)nc2C2CC(F)(F)C2)c1F` [Compound 209, N-(2,6-difluoro-3-methoxybenzyl)-3-(3,3-difluorocyclobutyl)-1-(4-((5-fluoro-2-oxopyridin-1(2H)yl)methyl)benzyl)-1H-pyrazole-4-carboxamide], for which the pIC50 under setting [1] is 7.97 and < 7.00.

Regarding `COc1ccnc(CNC(=O)c2cn(Cc3ccc(Cn4ccccc4=O)cc3)nc2C2CC(C)(OC)C2)c1F` (centres unmarked) [Compound 210], under setting [1], the pIC50 was 8.22.

Take `COc1ccc(F)c(CNC(=O)c2cn(Cc3ccc(Cn4ccccc4=O)cc3)nc2C2CC(C)(OC)C2)c1F` (centres unmarked) [Compound 211]: the pIC50 under setting [1] was 8.08.

On to `Nc1nc2ccc(CNC(=O)c3cnn(Cc4ccc(Cn5ccccc5=O)cc4)c3)cc2s1` [Compound 215], for which the pIC50 under setting [1] was 6.10.

Consider `COc1ccnc(CNC(=O)c2cn(Cc3ccc(Cn4ccccc4=O)cc3)nc2C2CC2(F)F)c1F` (centres unmarked) [Compound 216], for which, under setting [1], the pIC50 was 8.58.

As to `COc1ccc(F)c(CNC(=O)c2cn(Cc3ccc(Cn4cc(F)ccc4=O)cc3)nc2COCCN(C)C)c1F` [Compound 219], under setting [1], the pIC50 is 8.30.

Take `COCC1(F)CN(Cc2nn(Cc3ccc(Cn4cc(F)ccc4=O)cc3)cc2C(=O)NCc2c(F)ccc(OC)c2F)C1` [Compound 220]: the pIC50 under setting [1] was 7.92.

For `COCC1(F)CN(c2nn(Cc3ccc(Cn4ccccc4=O)cc3)cc2C(=O)NCc2nccc(OC)c2F)C1` [Compound 223], the pIC50 under setting [1] is 7.92.

As for `COc1ccnc(CNC(=O)c2cn(Cc3ccc(Cn4ccccc4=O)cc3)nc2N2CCOCC2)c1F` [Compound 224], the pIC50 under setting [1] is 7.55.

Turning to `COc1ccc(F)c(CNC(=O)c2cn(Cc3ccc(Cn4cc(F)ccc4=O)cc3)nc2OCCF)c1F` [Compound 226], the pIC50 under setting [1] is 7.96.

Consider `COc1ccc(F)c(CNC(=O)c2cn(Cc3ccc(Cn4cc(F)ccc4=O)c(F)c3)nc2C2CC(OC)C2)c1F` (centres unmarked) [Compound 227], for which the pIC50 under setting [1] was 8.04.

For the compound `COc1ccc(F)c(CNC(=O)c2cn(Cc3ccc(Cn4cc(F)ccc4=O)c(F)c3)nc2C2CC(F)(F)C2)c1F` [Compound 228], the pIC50 under setting [1] is 7.79.

Consider `COc1ccnc(CNC(=O)c2cn(Cc3ccc(Cn4ccccc4=O)cc3)nc2OCc2ccccn2)c1F` [Compound 229], for which the pIC50 under setting [1] was 7.64.

For `COc1ccc(F)c(CNC(=O)c2cn(Cc3ccc(Cn4ccccc4=O)cc3)nc2COCCN2CCCC2)c1F` [Compound 230], the pIC50 under setting [1] was 8.01.

Regarding `COc1ccc(F)c(CNC(=O)c2cn(Cc3ccc(Cn4cc(F)ccc4=O)cc3)nc2COCCN2CCCC2)c1F` [Compound 231], under setting [1], the pIC50 is 8.44.

As for `COc1ccnc(CNC(=O)c2cn(Cc3ccc(Cn4ccccc4=O)cc3)nc2N2CC(C)(OC)C2)c1F` [Compound 232], the pIC50 under setting [1] was 8.15.

As for `COc1ccc(F)c(CNC(=O)c2cn(Cc3ccc(Cn4ccccc4=O)cc3)nc2N2CC(F)(F)C2)c1F` [Compound 233], the pIC50 under setting [1] is 8.01.

`COc1ccc(F)c(CNC(=O)c2cn(Cc3ccc(Cn4cc(F)ccc4=O)cc3)nc2COCC2(F)COC2)c1F` [Compound 234]: the pIC50 under setting [1] is 8.30.

On to `COc1ccnc(CNC(=O)c2cn(Cc3ccc(Cn4ccccc4=O)cc3)nc2COCC2(F)COC2)c1F` [Compound 235, N-((3-fluoro-4-methoxypyridin-2-yl)methyl)-3-((3-fluorooxetan-3-yl)methoxy)methyl], for which the negative-log IC50 (pIC50) under setting [1] is 8.48.

For `COc1ccc(F)c(CNC(=O)c2cn(Cc3ccc(Cn4cc(F)ccc4=O)cc3)nc2COC2(C)COC2)c1F` [Compound 236], the pIC50 under setting [1] was 7.78.

Consider `COc1ccc(F)c(COC(=O)c2cn(Cc3ccc(Cn4cc(F)ccc4=O)cc3)nc2NC2(C)COC2)c1F` [Compound 237], for which the pIC50 under setting [1] is 8.56.
